Consider one molecule from PubChem BioAssay (NCI).

Common to all, as to assay: NCI anticancer screen, dose series, 48 h
Assay [1] has as its system ACHN renal.
The test system of assay [2] is T-47D breast.
The test system of assay [3] is CAKI-1 renal.
Assay [4] has as its system SR leukemia.
Assay [5] concerns SK-OV-3 ovarian.
Assay [6] relates to MOLT-4 leukemia.
Assay [7] relates to KM12 colon.
For assay [8], the system named is M14 melanoma.
Assay [9] deals with PC-3 prostate.
Assay [10] has as its system SN12C renal.

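Five concentrations, 48 hours, 96-well plates. Abbreviation: GI50, concentration required for 50% inhibition of growth. TGI is the concentration that stops growth completely.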

For the molecule `Cc1cc(-c2ccccn2)cc(C)c1/C=C/c1cncc(-c2nn[nH]n2)c1`, the GI50 in assay [1], in assay [2], in [3], in assay [4], in [5] and in assay [6] was greater than 25 µM each time. Moreover, the GI50 in assay [7], in assay [8], in assay [9] and in assay [10] was greater than 25 µM in each case. Further, the TGI in assay [1], in assay [2], in assay [3], in [4], in assay [5] and in assay [6] was greater than 25 µM in each case. Also, the TGI in [7], in [8], in assay [9] and in assay [10] was greater than 25 µM throughout.
